In patent US10035800B2 (AbbVie Inc., priority 2013, dated 2018):

How the values were obtained:
[1] = target: T1, BRD4 (BDI_K57-E168) (Homo sapiens, UniProt O60885); experiment: TR-FRET bromodomain binding assay, first bromodomain of BRD4; settings: 100 nM probe
T1 construct: BD1: amino acids K57-E168; made in house
Summary of the method: (§1)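 His-tagged BRD4 bromodomain (8 nM) was incubated with Eu-anti-His antibody (1 nM) and an Alexa647-labelled BET-inhibitor probe (100 nM for BDI, 30 nM for BDII) in pH 6.0 phosphate buffer with 2% DMSO for 1 h at room temperature. TR-FRET ratio was read, IC50 fitted by 4-parameter logistic, then converted to Ki.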

[2] = target: T2, BRD4 (BDII_E352-M457) (Homo sapiens, UniProt O60885); experiment: TR-FRET bromodomain binding assay, second bromodomain of BRD4; settings: 30 nM probe
T2 construct: protocol; made in house
Summary of the method: as §1

[3] = test system: breast cancer cell line MX-1; experiment: MX-1 cell line proliferation assay; format: cell-based; settings: MX-1 cells, 3-day proliferation assay, Cell Titer Glo; read-out: Cellular proliferation: EC50
Summary of the method: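 EC50 comes from sigmoidal fits of Cell Titer Glo luminescence relative to DMSO controls, with assay MSR 2.1. Ten-point 3-fold dilutions (top 3 or 1 μM final) were added to MX-1 breast cancer cells after overnight adhesion. Cells were at 5000/well and proliferation ran 3 days.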

[4] = test system: IL-6 (Interleukin-6) production; experiment: LPS (lipopolysaccharide) induced IL-6 production mouse assay; format: in vivo, mice; settings: oral administration 1 h before LPS 2.5 mg/kg ip, serum 2 h after LPS, p < 0.05 vs vehicle
Procedure: LPS (Lipopolysaccharide) Induced IL-6 Production Mouse Assay
Compounds of the Examples listed in Table 2 were assayed for their ability to inhibit LPS (lipopolysaccharide) induced IL-6 (Interleukin-6) production in mice. Fox Chase SCID® female mice (Charles Rivers Labs, 5 per group) or CD1 female mice (5 per group) received an intraperitoneal challenge of lipopolysaccharide (2.5 mg/kg, L2630 E. coli 0111:B4) one hour after oral administration of compounds. Mice were euthanized 2 hours after lipopolysaccharide injection, blood was removed by cardiac puncture, and then the serum harvested from the blood samples was frozen at −80° C. On the day of the assay the serum samples were brought to room temperature and then diluted 1:20 in phosphate-buffered saline containing 2% bovine serum albumin. Interleukin-6 measurements were performed using a cytokine assay from Meso Scale Discovery (Gaithersburg, Md.) for mouse serum analysis according to the manufacturer's protocol and read on a SECTOR Imager 6000 (Meso Scale Discovery, Gaithersburg, Md.) instrument. Statistical analysis was performed using Prism software (version 5.0) incorporating Dunnett's one way ANOVA. The IL-6 mean and standard deviation of the group of vehicle treated animals were compared with the IL-6 mean and standard deviation of the group treated with drug. A p value <0.05 means that there is less than a 5% probability that the mean values in the two groups are equal.

[5] = TR-FRET assay protocol E (compound 9.19 μM-150 pM)
[6] = TR-FRET assay protocol G (compound 0.92 μM-15 pM)
[7] = TR-FRET assay protocol B (compound 49.02 μM-15.63 nM)

| Ki [1, 5] | Ki [2, 5] | EC50 [3] | Ki [1, 6] | Ki [2, 6] | Ki [1, 7] | Ki [2, 7] | Compound | % inhibition of LPS induced IL-6 production ([4]; mouse strain SCID) | % inhibition of LPS induced IL-6 production ([4]; mouse strain CD1) |
| --- | --- | --- | --- | --- | --- | --- | --- | --- | --- |
| 0.963 nM | 0.801 nM | 1.07 nM | – | – | – | – | CCCCN1Cc2c[nH]c3c(=O)n(C)cc(c23)-c2cc(CS(C)(=O)=O)ccc21 [Example 24, 4-butyl-10-methyl-7-((methylsulfonyl)methyl)-3,4-dihydro-1H-1,4,10-triazadibenzo[cd,f]azulen-11(10H)-one] | 78% | – |
| – | – | 1.08 nM | 1.31 nM | 2 nM | – | – | Cn1cc2c3c(c[nH]c3c1=O)CN(C1CCCOC1)c1ccc(CS(C)(=O)=O)cc1-2 (racemic) [Example 182, 10-methyl-7-((methylsulfonyl)methyl)-4-(tetrahydro-2H-pyran-3-yl)-3,4-dihydro-1H-1,4,10-triazadibenzo[cd,f]azulen-11(10H)-one] | – | 77% |
| – | – | 10.7 nM | 1 nM | 3.38 nM | – | – | Cn1cc2c3c(c[nH]c3c1=O)CN(CCC1CCOCC1)c1ccc(CS(C)(=O)=O)cc1-2 [Example 191, 10-methyl-7-((methylsulfonyl)methyl)-4-(2-(tetrahydro-2H-pyran-4-yl)ethyl)-3,4-dihydro-1H-1,4,10-triazadibenzo[cd,f]azulen-11(10H)-one] | – | 60% |
| – | – | 14.5 nM | – | – | 51.1 nM | 26.7 nM | CCOC(=O)C1c2c[nH]c3c(=O)n(C)cc(c23)-c2cc(CS(C)(=O)=O)ccc2N1CC1CC1 (centres unmarked) [Example 7, ethyl 4-(cyclopropylmethyl)-10-methyl-7-((methylsulfonyl)methyl)-11-oxo-3,4,10,11-tetrahydro-1H-1,4,10-triazadibenzo[cd,f]azulene-3-carboxylate] | 53% | – |
| – | – | 3.77 nM | 2.66 nM | 0.62 nM | – | – | Cn1cc2c3c(c[nH]c3c1=O)CN(c1ccc(F)cc1F)c1c-2cc(CS(C)(=O)=O)cc1C1CC1 [Example 195, 5-cyclopropyl-4-(2,4-difluorophenyl)-10-methyl-7-((methylsulfonyl)methyl)-3,4-dihydro-1H-1,4,10-triazadibenzo[cd,f]azulen-11(10H)-one] | – | 85% |
| – | – | 1.41 nM | 0.96 nM | 0.51 nM | – | – | 4-(2,4-difluorophenyl)-10-methyl-7-((methylsulfonyl)methyl)-11-oxo-3,4,10,11-tetrahydro-1H-1,4,10-triazadibenzo[cd,f]azulene-5-carbonitrile [Example 206] | – | 76% |
| 5.22 nM | 0.631 nM | 8.75 nM | – | – | – | – | COCCC1c2c[nH]c3c(=O)n(C)cc(c23)-c2cc(CS(C)(=O)=O)ccc2N1CC1CC1 (racemic) [Example 15, 4-(cyclopropylmethyl)-3-(2-methoxyethyl)-10-methyl-7-((methylsulfonyl)methyl)-3,4-dihydro-1H-1,4,10-triazadibenzo[cd,f]azulen-11(10H)-one] | 68% | – |
| – | – | 115 nM | 2.55 nM | 33.1 nM | – | – | CN1CCN(C(=O)c2[nH]c3c(=O)n(C)cc4c3c2CN(c2ccc(Cl)cc2)c2ccc(CS(C)(=O)=O)cc2-4)CC1 [Example 60, 4-(4-chlorophenyl)-10-methyl-2-(4-methylpiperazine-1-carbonyl)-7-((methylsulfonyl)methyl)-3,4-dihydro-1H-1,4,10-triazadibenzo[cd,f]azulen-11(10H)-one] | – | 44% |
| 1.7 nM | 0.783 nM | 7 nM | – | – | – | – | CCS(=O)(=O)Nc1cnc2c(c1)-c1cn(C)c(=O)c3[nH]cc(c13)CN2c1ccc(F)cc1F [Example 23, N-(4-(2,4-difluorophenyl)-10-methyl-11-oxo-3,4,10,11-tetrahydro-1H-1,4,5,10-tetraazadibenzo[cd,f]azulen-7-yl)ethanesulfonamide] | 54% | – |
| – | – | 1.93 nM | 1.78 nM | 0.82 nM | – | – | CC(C)CN1Cc2c[nH]c3c(=O)n(C)cc(c23)-c2cc(CS(C)(=O)=O)ccc21 [Example 149, 4-isobutyl-10-methyl-7-((methylsulfonyl)methyl)-3,4-dihydro-1H-1,4,10-triazadibenzo[cd,f]azulen-11(10H)-one] | – | 86% |
| 4.98 nM | 1.36 nM | 1.39 nM | – | – | – | – | Cn1cc2c3c(c[nH]c3c1=O)CN(C1CCC(F)(F)CC1)c1ccc(CS(C)(=O)=O)cc1-2 [Example 30, 4-(4,4-difluorocyclohexyl)-10-methyl-7-((methylsulfonyl)methyl)-3,4-dihydro-1H-1,4,10-triazadibenzo[cd,f]azulen-11(10H)-one] | 81% | – |
| – | – | 5.38 nM | 2.02 nM | 0.617 nM | – | – | Cn1cc2c3c(c(C(N)=O)[nH]c3c1=O)CN(c1ccc(Cl)cc1)c1ccc(CS(C)(=O)=O)cc1-2 [Example 58, 4-(4-chlorophenyl)-10-methyl-7-((methylsulfonyl)methyl)-11-oxo-3,4,10,11-tetrahydro-1H-1,4,10-triazadibenzo[cd,f]azulene-2-carboxamide] | – | 39% |
| – | – | 4.3 nM | 0.79 nM | 0.35 nM | – | – | CCNC(=O)c1[nH]c2c(=O)n(C)cc3c2c1CN(c1ccc(F)cc1F)c1ccc(CS(C)(=O)=O)cc1-3 [Example 202, 4-(2,4-difluorophenyl)-N-ethyl-10-methyl-7-((methylsulfonyl)methyl)-11-oxo-3,4,10,11-tetrahydro-1H-1,4,10-triazadibenzo[cd,f]azulene-2-carboxamide] | – | 47% |
| 6.95 nM | 2.74 nM | 1.03 nM | – | – | – | – | 10-methyl-7-((methylsulfonyl)methyl)-4-((tetrahydro-2H-pyran-3-yl)methyl)-3,4-dihydro-1H-1,4,10-triazadibenzo[cd,f]azulen-11(10H)-one [Example 29] | 76% | – |
| – | – | 4.26 nM | 1.14 nM | 2.3 nM | – | – | Cn1cc2c3c(c[nH]c3c1=O)CN(C1CCOCC1)c1ccc(CS(C)(=O)=O)cc1-2 [Example 151, 10-methyl-7-((methylsulfonyl)methyl)-4-(tetrahydro-2H-pyran-4-yl)-3,4-dihydro-1H-1,4,10-triazadibenzo[cd,f]azulen-11(10H)-one] | – | 57% |
| – | – | 0.69 nM | 1.59 nM | 0.63 nM | – | – | Cn1cc2c3c(c[nH]c3c1=O)CN(c1ccc(Cl)cc1)c1ccc(CS(C)(=O)=O)cc1-2 [Example 198, 4-(4-chlorophenyl)-10-methyl-7-((methylsulfonyl)methyl)-3,4-dihydro-1H-1,4,10-triazadibenzo[cd,f]azulen-11(10H)-one] | – | 86% |
| – | – | 1.47 nM | 1.33 nM | 0.38 nM | – | – | N-ethyl-4-(4-fluorophenyl)-10-methyl-7-((methylsulfonyl)methyl)-11-oxo-3,4,10,11-tetrahydro-1H-1,4,10-triazadibenzo[cd,f]azulene-2-carboxamide [Example 194] | – | 53% |
| – | – | 1.25 nM | 1.65 nM | 1.08 nM | – | – | Cn1cc2c3c(c[nH]c3c1=O)CN(c1ccc(C#N)cc1)c1ccc(CS(C)(=O)=O)cc1-2 [Example 192, 4-(10-methyl-7-((methylsulfonyl)methyl)-11-oxo-10,11-dihydro-1H-1,4,10-triazadibenzo[cd,f]azulen-4(3H)-yl)benzonitrile] | – | 73% |

| Compound | Ki [1, 5] | Ki [2, 5] | EC50 [3] | Ki [1, 6] | Ki [2, 6] | Ki [1, 7] | Ki [2, 7] | % inhibition of LPS induced IL-6 production ([4]; mouse strain SCID) | % inhibition of LPS induced IL-6 production ([4]; mouse strain CD1) |
| --- | --- | --- | --- | --- | --- | --- | --- | --- | --- |
| Cn1cc2c3c(c[nH]c3c1=O)CN(CC1CCOC1)c1ccc(CS(C)(=O)=O)cc1-2 (centres unmarked) [Example 26] | – | – | 1.03 nM | 0.701 nM | 0.719 nM | – | – | 88% | – |
| 5,7-difluoro-10-methyl-4-((tetrahydrofuran-3-yl)methyl)-3,4-dihydro-1H-1,4,10-triazadibenzo[cd,f]azulen-11(10H)-one [Example 42] | – | – | 5.44 nM | 1.56 nM | 2.03 nM | – | – | – | 86% |
